Test results as given in patent US10617695B2, “Ophthalmic compositions containing alcaftadine” (Vistakon Pharmaceuticals, LLC, priority 2006, dated 2020).

How the values were obtained:
[1] = tested on: adult volunteers with a history of allergic conjunctivitis; assay: Conjunctival Allergen Challenge (CAC) in adult volunteers; type: in vivo, human
Experimental: The anti-allergic effect of a single dose of each of the three concentrations of alcaftadine ophthalmic solutions from Example 1 was assessed in a Conjunctival Allergen Challenge (“CAC”) performed on adult volunteers with a history of allergic conjunctivitis. Subjects were selected after two visits to confirm reactivity to the allergen challenge. […] Subjects were then challenged with allergen by instilling reconstituted commercially available allergen into each eye on two separate visits 16 hours and 15 minutes after the bilateral instillation of alcaftadine, PATANOL® olopatadine hydrochloride ophthalmic solution 0.1% (Alcon, Inc., Fort Worth, Tex.) or vehicle, and the clinical response assessed.
Assessments were made at 7, 15 and 20 minutes post challenge based on investigator evaluations of redness using a 5 point scale.
Nasal symptoms of sneezing, rhinorrhea, pruritis (nasal and ear/palate) and nasal congestion were assessed by subjects using standardized scales.

[2] = Chemical stability of alcaftadine solution in ethylene oxide sterilized LDPE bottles; type: physicochemical
Experimental: Both non-sterilized Rexam and Bunder Glas bottles were sterilized using ethylene oxide. Stability studies were initiated and ethylene oxide levels determined to be <1 ppm (under ambient conditions) using a water extraction test method (ANSI/AAMI/ISO: 10993-7) by AppTec (Marietta, Ga.).
The 2.5 mg/ml alcaftadine solution was used in this study.
The chemical stability results for alcaftadine stored in ethylene oxide sterilized Rexam and Bunder Glas bottles are summarized in Table 4.

[3] = tested on: SWR/J mice sensitized with short ragweed allergen; assay: Topical alcaftadine in murine model of active anaphylaxis (allergic conjunctivitis, short ragweed challenge); type: in vivo, mouse; settings: alcaftadine 0.0625% ophthalmic solution, 15 minutes after allergen challenge
Experimental: Male SWR/J mice (The Jackson Laboratory, Bar Harbor, Me.), aged 5-7 weeks and weighing between 12.55 and 17.73 grams, were sensitized with a 100 μl dose of a suspension of 50 μg short ragweed allergen (Greer Labs, Inc., Lenoir, N.C.) and 1 mg of aluminum hydroxide (Fisher Scientific, Pittsburgh, Pa.) by intraperitoneal injection at two weeks and prior to treatment and challenge. […] The mice were then dosed topically in the eye with an alcaftadine 0.0625% ophthalmic solution, positive control (ophthalmic solution comprising combination of ketotifen 0.05% and pheniramine 0.5%), or placebo prior to an ocular challenge with 1.5 mg short ragweed allergen in phosphate buffered saline. Fifteen (15) minutes after allergen challenge, mice were evaluated for clinical signs of allergic conjunctivitis by scoring for conjunctival redness, chemosis, tearing, and lid edema. Severity of clinical signs was scored by a trained technician using a standardized 0-2 scale.

ZO-1 = assay: Integrity of conjunctival epithelium after conjunctival allergen challenge: ZO-1 expression (confocal microscopy); type: in vivo, mice
Experimental: (§1) To investigate the ability of alcaftadine to maintain the integrity of conjunctival epithelium, changes in the expression of the tight junction proteins ZO-1 and E-cadherin (an induction for E-cadherin and qualitative change-from focal to diffuse for ZO-1) were evaluated following specific conjunctival allergen challenge. These changes are associated with an increased permeability of the conjunctival and other epithelial tissues. This in vivo experiment examined what effect alcaftadine (topical administration 1 and 2 hours pre-challenge) had on the modulation of these proteins.
(§2) Mice were sensitized with short ragweed (SRW) in aluminum hydroxide via intraperitoneal administration (Day 0, 7, and 15) and eye drop instillation (Day 8 and 15). On Day 20, mice were further sensitized with eye drops containing only SRW. On Day 27, the mice were treated topically with either 5 μL alcaftadine or vehicle at 1 and 2 hours prior to challenge. SRW was instilled topically to both eyes. The expression of these proteins in naive eyes were also monitored. Changes in the expression of the tight junction proteins ZO-1 and E-cadherin were observed 1-hour post conjunctival allergen challenge with SRW. The proteins were detected using FITC-conjugated monoclonal antibodies specific for ZO-1 and E-cadherin and were visualized by confocal microscopy (Ziess). […]

E-cadherin = assay: Integrity of conjunctival epithelium after conjunctival allergen challenge: E-cadherin expression (confocal microscopy); type: in vivo, mice
Experimental: as §1, §2

[4] = administered 16 hours prior to challenge
[5] = Bunder Glas bottles, Ethylene Oxide, 5 days at 50° C.
[6] = Bunder Glas bottles, Ethylene Oxide, 14 days at 50° C.
[7] = Rexam bottles, Ethylene Oxide, 5 days at 50° C.
[8] = Rexam bottles, Ethylene Oxide, 14 days at 50° C.
[9] = 5 μL topical at 1 and 2 hours prior to challenge, 1-hour post challenge
[10] = following specific conjunctival allergen challenge

CN1CCC(=C2c3ccccc3CCn3c(C=O)cnc32)CC1 [Alcaftadine, 6,11-dihydro-11-(1-methyl-4-piperidinylidene)-5H-imidazo[2,1-b][3]benzazepine-3-carboxaldehyde]
itching scores versus vehicle or PATANOL ([1]; 0.25% treatment group, challenged 15 minutes post-treatment): lower itching scores than vehicle or PATANOL® | conjunctival redness scores versus vehicle or PATANOL ([1]; 0.25% treatment group, challenged at 15 minutes post-treatment): lower scores than vehicle or PATANOL® | inhibition of conjunctival redness [1, 4]: dose-related inhibition of conjunctival redness | inhibition of ocular itching [1, 4]: dose-related inhibition of ocular itching | mean itching scores versus vehicle or PATANOL ([1]; all concentrations, 16 hours prior to challenge, 3, 5 and 7 minutes post-challenge, 5 point scale): lower mean itching scores | mean conjunctival redness scores ([1]; all concentrations, 16 hours prior to challenge, 7, 15 and 20 minutes post challenge, 5 point scale): various degrees of reduction in mean conjunctival redness scores at most assessment times | relief of nasal congestion and rhinorrhea ([1]; all concentrations, various time points): some degree of relief | effect on sneezing ([1]; baseline sneezing incidence likely too low): No effect on sneezing was demonstrated | inhibition of ocular itching ([1]; challenged 15 minutes post-treatment): dose-related inhibition of ocular itching as compared to placebo | reduction of rhinorrhea, nasal congestion, and pruritis of the palate/ear ([1]; majority of timepoints at both onset and duration visits): significant reduction | N-oxide levels in ethylene oxide sterilized Bunder Glas bottles versus gamma irradiated bottles ([2]; 14 days of storage at 50° C. under ambient light conditions): significantly lower N-oxide levels | Alcaftadine [2, 5]: 2.46 mg/mL | N-Oxide [2, 5]: 0.052% | Alcaftadine [2, 6]: 2.48 mg/mL | N-Oxide [2, 6]: 0.074% | Alcaftadine ([2]; Glass Vials, 5 days at 50° C.): 2.48 mg/mL | N-Oxide ([2]; Glass Vials, 5 days at 50° C.): 0.022% | Alcaftadine ([2]; Glass Vials, 14 days at 50° C.): 2.51 mg/mL | N-Oxide ([2]; Glass Vials, 14 days at 50° C.): 0.028% | Alcaftadine [2, 7]: 2.50 mg/mL | N-Oxide [2, 7]: 0.018% | Alcaftadine [2, 8]: 2.58 mg/mL | N-Oxide [2, 8]: 0.025% | preventing tearing [3]: as effective as the positive control and more effective than placebo | preventing itching, redness, chemosis and lid edema ([3]; positive control ketotifen 0.05% and pheniramine 0.5%): more effective than the positive control | ZO-1 staining, alcaftadine treatment versus naive (negative control) (ZO-1; [9]): no or minimal difference | integrity of conjunctival epithelial tight junctions (focal ZO-1 expression) (ZO-1; [10]): maintains the integrity of conjunctival epithelial tight junctions | E-cadherin staining, alcaftadine treatment versus naive (negative control) (E-cadherin; [9]): no or minimal difference | induction of E-cadherin expression (E-cadherin; [10]): inhibits the induction of E-cadherin expression
